We go through five compounds from patent EP2142646B1, “METHOD OF INCREASING OF THE PHOTOSYNTHETIC CARBON DIOXIDE ASSIMILATION YIELD” (priority 2007, dated 2008).

The structures appear in SMILES notation. “And” between values parts separate entries of the source, which are not always exact repeats. Identical values can stand only once.

For one experiment, the target named is T1, RuBisCO (Spinacia oleracea, UniProt P00870+P00875).
T1 construct: from tissue; host or cells: spinach
Description: RuBisCO carboxylase assay (formation of acid-stable 14C product from NaH14CO3). It is filed as biochemical, spinach. From the text: Relative amount of product detected represents the ratio of the amount of [1-14C]-3-phosphoglycerate produced by the reaction in the presence of 20E to the amount of [1-14C]-3-phosphoglycerate produced by the reaction in no presence of 20E.
The influence of ecdysteroids on RuBisCO assay was based on the protocol described by Pierce et al. (Pierce JW, McCurry SD, Mulligan RM, Tolbert NE. Activation and assay of ribulose-1,5-bisphosphate carboxylase/oxygenase. Methods Enzymol. 1982; 89: 47-55.), where the RuBisCO carboxylase activity is assayed by the rate of formation of acid-stable ^14C product, […], formed from NaH^14CO3. First, the enzyme from spinach was activated at 2 mg.mL^-1 in the activating buffer - 100 mM Bicine pH 8.2, non-labelled 10 mM NaHCO3, 20 mM MgCl2, 0.2 mM EDTA and 1 mM dithiodireitol - for ten minutes at 30 °C. The assay itself was carried out in 20 ml scintillation vials in a solution prepared by mixing 250 µL of 200 mM bicine buffer pH 8.2, 0.4 mM EDTA and 1 mM dithiothreitol, 5 µL of 2 M MgCl2, 150 µL of 20E solution or water (in the case of the control), 20 µL of 250 mM NaH^14CO3 solution and 20 µL of 12.5 mM ribulose-1,5-bisphosphate. 250 mM NaH^14CO3 was prepared by mixing NaH^14CO3 solution (specific activity 2 mCi/ml) with 0.3 M NaHCO3 in the ratio of 1:4. The reaction was initiated by the addition of 100 µL of the activated enzyme and the vial was swirled so that the solution components could mix. The reaction was stopped by the addition of 200 µL of 2 M HCl. To remove excess ^14CO2 and acid, the vials were slowly heated at 95 °C in a hood. After the liquid evaporated and the vials were cooled at laboratory temperature, 5 mL of scintillation solution Rotiszint® eco plus was added. The concentration of 20E was chosen so that its final molar concentration to the molar concentration of the enzyme in the vial was 1:1; the stock solution containing 1 mg of 20E per ml was diluted to the desired concentration just before the experiment.
The same experiment as in Example 1 was carried out but different amounts of 20-hydroxyecdysone were used.
The same experiment as in Example 1 was carried out but different brassinosteroids were used.
The same experiment as in Example 1 was carried out but different ecdysteroids were used.
The same experiment as in Example 1 was carried out but mixed ecdysteroid fractions were used.

Another experiment concerns photosynthesis. Kind of experiment: Overall activity of photosynthesis in vivo: oxygen production by leaf target (Clark oxygen electrode). The note with it: for Net photosynthetic rate. PN, Average: average of 6 plants; for Net photosynthetic rate. PN: individual plants (Plant nr. 1-6), listed as 20E. On the procedure: Activity of photosynthesis was measured as the production of oxygen by circular target (average 35 mm) cut from the third leaf (counted from the top of the plant) that was placed in the sampling chamber. Assay: oxygen electrode (Clark electrode), sampling chamber LD2 (Hansatech, King's Lynn, Great Britain). Target was incubated in the dark for 5 minutes followed by 9 minutes of illumination; production of oxygen evaluated in the fifth-eighth minute after illumination (in the linear part of the light curve). Illumination was 240 micromol.m^-2.s^-1. Plants were 96 days old when analyzed (96 days after sowing). […]

In experiment [1] the target is small subunits of RuBisCO (Spinacia oleracea, UniProt P00870). Kind of experiment: Bioaffinity chromatography of steroid-binding proteins. An excerpt:
As an example, ecdysteroids can be stated. […] Their function in plants has been unknown yet. We discovered that these compounds influence the carboxylase activity of the enzyme. The active enzyme consists of 8 large subunits and 8 small subunits considered to have regulatory role. We identified the small subunits as proteins able to bind 20-hydroxyecdysone (20HE) in bioaffinity chromatography.

Setting [2] is: molar ratio of steroid to enzyme 10:1, relative to reaction without steroid.

T1 sequence (P00870 whole entry, other chains not shown): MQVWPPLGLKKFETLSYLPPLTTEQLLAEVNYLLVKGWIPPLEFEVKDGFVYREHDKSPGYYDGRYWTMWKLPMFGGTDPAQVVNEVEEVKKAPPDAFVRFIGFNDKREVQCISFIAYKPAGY
Sequence of small subunits of RuBisCO (P00870 whole entry): as the sequence (P00870 whole entry, other chains not shown) above

In the case of `CC(C)[C@@H](C)[C@@H](O)[C@H](O)[C@@H](C)[C@H]1CC[C@H]2[C@@H]3CC(=O)[C@H]4C[C@H](O)[C@H](O)C[C@]4(C)[C@H]3CC[C@]12C` [24-epicastasterone], the “Relative amount of product detected” value at RuBisCO (setting [2]) is 1.20.

Take `CC(C)(O)CC[C@@H](O)[C@](C)(O)[C@H]1CC[C@@]2(O)C3=CC(=O)[C@@H]4C[C@@H](O)[C@@H](O)C[C@]4(C)[C@H]3CC[C@]12C` [20-hydroxyecdysone]: the “Relative amount of product detected” value at RuBisCO (molar ratio of steroid to enzyme 1:1, [1-14C]-3-phosphoglycerate relative to reaction without steroid) was determined as 1.05; on RuBisCO (setting [2]), 1.13; at RuBisCO (molar ratio of steroid to enzyme 20:1, relative to reaction without steroid), 1.12. Also, the “Net photosynthetic rate. PN, Average” value with photosynthesis (1 hour) turned out to be 21.09 µmol O2.m^-2.s^-1; with photosynthesis (2 hours), 22.77 µmol O2.m^-2.s^-1; in the experiment on photosynthesis (4 hours), 22.34 µmol O2.m^-2.s^-1; in the experiment with photosynthesis (6 hours), 22.72 µmol O2.m^-2.s^-1. Besides, the “Net photosynthetic rate. PN” value was 17.02 µmol O2.m^-2.s^-1 and 21.56 µmol O2.m^-2.s^-1 and 22.70 µmol O2.m^-2.s^-1 and 18.40 µmol O2.m^-2.s^-1 and 23.42 µmol O2.m^-2.s^-1 (2×) with photosynthesis (1 hour, plants 96 days old, illumination 240 micromol.m^-2.s^-1); 18.73 µmol O2.m^-2.s^-1 and 21.56 µmol O2.m^-2.s^-1 and 23.83 µmol O2.m^-2.s^-1 and 23.42 µmol O2.m^-2.s^-1 and 25.10 µmol O2.m^-2.s^-1 and 23.98 µmol O2.m^-2.s^-1 in the experiment with photosynthesis (2 hours); 21.56 µmol O2.m^-2.s^-1 and 22.70 µmol O2.m^-2.s^-1 and 22.31 µmol O2.m^-2.s^-1 (2×) and 21.75 µmol O2.m^-2.s^-1 and 23.42 µmol O2.m^-2.s^-1 in the experiment with photosynthesis (4 hours); 23.83 µmol O2.m^-2.s^-1 and 22.70 µmol O2.m^-2.s^-1 and 22.31 µmol O2.m^-2.s^-1 (2×) and 21.75 µmol O2.m^-2.s^-1 and 23.42 µmol O2.m^-2.s^-1 in the experiment on photosynthesis (6 hours). Besides, the “binding to small subunits of RuBisCO” value in experiment [1] is given as “able to bind”.

As for `CC(C)(O)CC[C@@H](O)[C@](C)(O)[C@H]1CC[C@@]2(O)C3=CC(=O)[C@]4(O)C[C@@H](O)[C@@H](O)C[C@]4(C)[C@H]3CC[C@]12C` [Polypodine B], the “Relative amount of product detected” value on RuBisCO (setting [2]) is recorded as 1.11.

Turning to `CC(C)[C@@H](C)[C@@H](O)[C@H](O)[C@@H](C)[C@H]1CC[C@H]2[C@@H]3COC(=O)[C@H]4C[C@H](O)[C@H](O)C[C@]4(C)[C@H]3CC[C@]12C` [24-epibrassinolide], the “Relative amount of product detected” value at RuBisCO (setting [2]) was found to be 1.10.

As to `CC(C)CC[C@@H](O)[C@](C)(O)[C@H]1CC[C@@]2(O)C3=CC(=O)[C@@H]4C[C@@H](O)[C@@H](O)C[C@]4(C)[C@H]3[C@H](O)C[C@]12C` [Ajugasterone C], the “Relative amount of product detected” value at RuBisCO (setting [2]) is reported as 1.13.
